Source: patent publication US9248089B2, “Peptide-based compounds as inhibitors of neurotransmitter secretion” (GRF (WUHAN) BIOTECHNOLOGY INC., priority 2011, dated 2016)
Peptide text beside a SMILES is read from it.

Tested on: HEK293 cells
Experiment: HEK293 cell assay (evaluation of biological degradation, HPLC of supernatant)
Type: in vitro ADME, Human
Details: for Degradation after incubation with HEK293 cells: 37° C., 1.0×10^6 HEK293 cells; for Degradation after incubation with HEK293 cells / Degradation pattern/profile compared with another compound: HPLC condition D; for Degradation pattern/profile compared with another compound: incubation with HEK293 cells
Description: The Human Embryonic Kidney 293 (HEK293) cells may be cultured in suspension. After the HEK293 cells are collected, the cells may be washed 3 times with PBS buffer before the assay.
The stock solution of peptide-based compounds may be made by dissolving the compound in PBS buffers or in DMSO. Other solutions or solvents may be used to dissolve the peptide-based compounds for this assay.
2. Add 10 μL of the stock solution of the peptide-based compound prepared above so that the final concentration of the peptide-based compound is around 1/10th of that of the stock.
3. Incubate the resulting mixture at 37° C. for 3, 5, 10, 20, or 30 min.
4. Remove the cells by centrifugation.
5. Collect an aliquot of the supernatant solution (20 μL) and loaded it onto a reverse-phase HPLC column (3.9×150 Nova-Pak C18, Waters, Mass., USA) on an HPLC system (125 solvent module, System Gold, Beckman, Calif., USA). Peptide peaks may be detected at the wavelength of 220 nm (Diode Array Detector module 168, Beckman, Calif., USA).

| Compound | Detectable Compound 2 as degradation intermediate (5 min incubation with HEK293 cells) | Degradation after incubation with HEK293 cells (5 min incubation) | Degradation after incubation with HEK293 cells (10 min incubation) | Degradation pattern/profile compared with another compound | Degradation after incubation with HEK293 cells (3 min incubation) | Detectable Compound 2 as degradation intermediate (30 min incubation with HEK293 cells) | Degradation after incubation with HEK293 cells (30 min incubation) |
| --- | --- | --- | --- | --- | --- | --- | --- |
| COC(=O)CC[C@H](NC(C)=O)C(=O)N[C@@H](CCC(=O)OC)C(=O)N[C@@H](CCSC)C(=O)N[C@@H](CCC(N)=O)C(=O)N[C@@H](CCCNC(=NC(=O)OC(C)(C)C)NC(=O)OC(C)(C)C)C(=O)N[C@@H](CCCNC(=NC(=O)OC(C)(C)C)NC(=O)OC(C)(C)C)C(N)=O [Compound 3, Ac-Glu(OMe)-Glu(OMe)-Met-Gln-Arg(Boc)2-Arg(Boc)2-NH2] | did not produce detectable intermediacy of Compound 2 | degraded to at least two fragments | completed degraded to the two fragments | degraded in the same pattern as Compound 2 |  |  |  |
| Ac-EEMQRR-NH2 [Compound 2, Ac-Glu-Glu-Met-Gln-Arg-Arg-NH2, reference compound] |  |  | degraded to at least two fragments | did not give the same degradation pattern as Compound 1 |  |  |  |
| COC(=O)CC[C@H](NC(C)=O)C(=O)N[C@@H](CCC(=O)OC)C(=O)N[C@@H](CCSC)C(=O)N[C@@H](CCC(N)=O)C(=O)N[C@@H](CCCNC(=N)N)C(=O)N[C@@H](CCCNC(=N)N)C(N)=O [Compound 1, Ac-Glu(OMe)-Glu(OMe)-Met-Gln-Arg-Arg-NH2] (Ac-E(OMe)E(OMe)MQRR-NH2) |  |  |  |  | degraded to Compound 2 and at least one new fragment | No Compound 2 was detectable | fully degraded to at least one new fragment |
